ChEMBL document CHEMBL4831511, “Fluorovinylsulfones and -Sulfonates as Potent Covalent Reversible Inhibitors of the Trypanosomal Cysteine Protease Rhodesain: Structure-Activity Relationship, Inhibition Mechanism, Metabolism, and In Vivo Studies” (J Med Chem, 2021)
Active and inactive are the calls of the source. The calls are words filed in the database; no cut-off is given here.

Legend:
Rhodesain [1] = target: T1, Rhodesain (Trypanosoma brucei rhodesiense, UniProt Q95PM0); test: Inhibition of Trypanosoma brucei rhodesain assessed as fluorescence using Cbz-Phe-Arg-AMC as substrate measured at second inhibition step by fluorometric enzyme assays
T1 sequence (Q95PM0 whole entry): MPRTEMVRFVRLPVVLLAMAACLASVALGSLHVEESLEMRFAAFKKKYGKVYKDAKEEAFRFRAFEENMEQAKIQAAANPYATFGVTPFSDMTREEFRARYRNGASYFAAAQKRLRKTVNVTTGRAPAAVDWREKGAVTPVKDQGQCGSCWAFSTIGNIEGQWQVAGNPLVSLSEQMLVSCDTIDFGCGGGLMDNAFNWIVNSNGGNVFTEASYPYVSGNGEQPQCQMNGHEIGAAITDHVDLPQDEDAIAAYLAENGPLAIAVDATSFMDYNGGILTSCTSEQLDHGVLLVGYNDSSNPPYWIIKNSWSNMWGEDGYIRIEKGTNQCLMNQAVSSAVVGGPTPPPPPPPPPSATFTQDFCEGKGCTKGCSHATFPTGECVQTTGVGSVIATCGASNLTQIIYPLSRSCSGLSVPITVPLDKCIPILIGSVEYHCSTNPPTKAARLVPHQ

Procathepsin L = Procathepsin L (Homo sapiens, UniProt P07711); test: Inhibition of human liver CatL assessed as fluorescence using Cbz-Phe-Arg-AMC as substrate measured at second inhibition step by fluorometric enzyme assays
Procathepsin L, sequence (P07711 whole entry): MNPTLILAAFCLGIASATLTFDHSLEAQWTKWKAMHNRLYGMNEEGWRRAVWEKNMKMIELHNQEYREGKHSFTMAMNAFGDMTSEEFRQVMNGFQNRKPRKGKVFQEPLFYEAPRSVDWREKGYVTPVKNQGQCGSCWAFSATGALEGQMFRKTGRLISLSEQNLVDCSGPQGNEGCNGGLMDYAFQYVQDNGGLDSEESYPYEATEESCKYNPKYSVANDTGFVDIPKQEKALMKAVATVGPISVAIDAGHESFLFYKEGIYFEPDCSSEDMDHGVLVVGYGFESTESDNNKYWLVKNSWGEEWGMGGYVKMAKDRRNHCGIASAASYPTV

[2] = test system: cathepsin L (CatL) versus rhodesain; test: Selectivity index, ratio of Ki for human liver CatL to Trypanosoma brucei rhodesain; settings: read-out: Selectivity Index
Cathepsin B = Cathepsin B (Homo sapiens, UniProt P07858); test: Inhibition of human liver CatB assessed as fluorescence using Cbz-Phe-Arg-AMC as substrate at 11 uM by fluorometric enzyme assays
[3] = target: Rhodesain (Trypanosoma brucei rhodesiense) (UniProt Q95PM0); test: Reversible inhibition of Trypanosoma brucei rhodesain assessed as fluorescence using Cbz-Phe-Arg-AMC as substrate by fluorometric enzyme assays
Rhodesain (Trypanosoma brucei rhodesiense), sequence (Q95PM0 1-450): as the sequence (Q95PM0 whole entry) above

Rhodesain [4] = target: T1, Rhodesain; test: Competitive inhibition of Trypanosoma brucei rhodesain assessed as fluorescence using Cbz-Phe-Arg-AMC as substrate by fluorometric enzyme assays
[5] = target: Rhodesain (Trypanosoma brucei rhodesiense) (UniProt Q95PM0); test: Reversible inhibition of Trypanosoma brucei rhodesain assessed as reversibility using Cbz-Phe-Arg-AMC as substrate by dilution assay
[6] = target: Rhodesain (Trypanosoma brucei rhodesiense) (UniProt Q95PM0); test: Reversible inhibition of Trypanosoma brucei rhodesain assessed as reversibility by measuring residual enzymatic activity using Cbz-Phe-Arg-AMC as substrate after 1 hr by fluorometry based dialysis experiment relative to control
[7] = test system: Trypanosoma brucei brucei; test: Antiprotozoal activity against Trypanosoma brucei brucei TC211 assessed as luminescence incubated for 24 to 48 hrs by ATPlite assay; type: functional, organism-based
HeLa = test: Cytotoxicity against human HeLa cells by Alamar blue assay; type: functional
[8] = target: Proteasome Macropain subunit (Homo sapiens) (UniProt P49721); test: Inhibition of trypsin-like activity of human 20S proteasome at 11 uM using boc-Leu-Arg-Arg-AMC as fluorogenic substrate by microplate reader relative to control
Proteasome Macropain subunit (Homo sapiens), sequence (P49721 whole entry): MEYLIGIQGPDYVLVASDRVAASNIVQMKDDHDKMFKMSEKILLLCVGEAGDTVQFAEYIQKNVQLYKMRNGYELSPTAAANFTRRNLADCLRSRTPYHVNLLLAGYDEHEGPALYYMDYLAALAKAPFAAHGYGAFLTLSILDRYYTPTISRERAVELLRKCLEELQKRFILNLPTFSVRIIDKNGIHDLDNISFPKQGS

Homo sapiens [9] = species: Homo sapiens; test: Inhibition of caspase-like activity of human 20S proteasome at 11 uM using Cbz-Leu-Leu-Glu-AMC as fluorogenic substrate by microplate reader relative to control
Homo sapiens [10] = species: Homo sapiens; test: Inhibition of alpha-chymotrypsin-like activity of human 20S proteasome at 11 uM using Succ-Leu-Leu-Val-Tyr-AMC as fluorogenic substrate by microplate reader relative to control
Dengue virus = test: Inhibition of Dengue virus NS2B-NS3 protease assessed as fluorescent emission using boc-Gly-Arg-Arg-AMC at 11 uM by microplate reader relative to control
[11] = test system: Trypanosoma brucei brucei; test: Antiprotozoal activity against Trypanosoma brucei brucei BS449 assessed as luminescence incubated for 24 to 48 hrs by ATPlite assay; type: functional, organism-based
J774.1 = test: Cytotoxicity against mouse J774.1 cells by Alamar blue assay; type: functional

Row | Compound | Ki (Rhodesain [1]) [nM] | Ki (Procathepsin L) [nM] | selectivity ratio [2] | inhibition (Cathepsin B) [%] | Activity [3] | Ki (Rhodesain [4]) [nM] | Activity [5] | Activity [6] [%] | EC50 [7] [nM] | CC50 (HeLa) [nM] | inhibition [8] | inhibition (Homo sapiens [9]) | inhibition (Homo sapiens [10]) | inhibition (Dengue virus) | EC50 [11] [nM] | CC50 (J774.1) [nM]
1 | Cc1ccc(C[C@H](NC(=O)c2ccncc2)C(=O)N[C@H](/C=C(\F)S(=O)(=O)Cc2ccccc2)CCc2ccccc2)cc1 | 15 | 181 | 12 | 35 | Active | 25 | Active | 47 | 1400 | > 100000 | inactive | inactive | inactive | inactive |  | 
2 | O=C(N[C@@H](Cc1ccccc1)C(=O)N[C@H](/C=C(\F)S(=O)(=O)c1ccccc1)CCc1ccccc1)c1ccncc1 |  |  |  |  | Active | 47 | Active |  |  | > 100000 | inactive | 41% | 10% | inactive | 3000 | > 100000
